# Test results from PMC6480586, “Intestinal Permeability Study of Clinically Relevant Formulations of Silibinin in Caco-2 Cell Monolayers” (International Journal of Molecular Sciences, 2019).
# Key:
# [1] = Caco-2 cell monolayer transport (permeability) study; assay type: in vitro ADME; conditions: human, formulations at 200 µg/mL in HBSS/0.6% DMSO, pH 7.4, 37 °C, up to 120 min, n = 6; for Papp A→B at 120 min, 200 µg/mL: apical to basolateral
# Description: Caco-2 cells were seeded at a density of 1 × 10^5 onto Transwell 6-well inserts with a polyethylene terephthalate membrane (0.4 µm pore size; BD Falcon) and were maintained at 37 °C under 90% humidity and 5% CO2. The medium was replaced every two to three days for both the AP and BL chambers. Cell monolayers were used 19–21 days after seeding, once confluence and differentiation were achieved. The integrity of each cell monolayer was assessed by measuring the TEER before and after the experiments with an epithelial voltammeter (Millicell-ERS). Permeability studies were performed by adding the silibinin formulations at 200 µg/mL in HBSS/0.6% DMSO (stocks were prepared at 30 mg/mL in 100% DMSO) and, in parallel, standard silibinin at different concentrations (10, 20, 50, 100, 150, 200, and 300 µmol/L).
# The transport experiment was initiated by removing the culture medium from the AP and BL chambers. The Caco-2 monolayers were washed twice with pre-warmed HBSS (pH 7.4) and incubated with the same solution at 37 °C for 30 min. […]
# Transport studies were performed from apical-to-basolateral (AP–BL) and basolateral-to-apical (BL–AP) chambers. The apparent permeability (Papp) values for each compound were calculated according to the following equation: Papp=dQ/dt·1/A·C0·60 where Papp is the apparent permeability (cm/s), dQ/dt is the steady-state flux, A is the diffusion area of the monolayers (cm^2), C0 is the initial concentration of the drug in the donor compartment (µM), and 60 is a conversion factor [49].
# The efflux ratio was calculated to determine the absorption mechanism such as the ratio of Papp (BL–AP) […] Papp (AP–BL).
# Analyses were performed using an Agilent LC 1100 series HPLC system (Agilent Technologies, Inc., Palo Alto, CA) controlled by Chemstation software, equipped with a pump, autosampler, column oven, and UV–VIS diode array detector (wavelength selected at 280 nm to detect silibinin). […] A calibration graph for the quantitative evaluation of silibinin was performed using a six-point regression curve (r^2 > 0.999).
# [2] = cited from earlier work
Compound,"Papp A→B at 120 min, 200 µg/mL [1] [×10⁻⁶ cm/s]","Papp B→A at 120 min, 200 µg/mL ([1]; basolateral to apical) [×10⁻⁶ cm/s]","Solubility in polar aprotic solvents ([2]; e.g., acetone, DMF, THF)","Solubility in non-polar solvents ([2]; e.g., chloroform and petroleum ether)","Solubility in polar protic solvents ([2]; e.g., ethanol and methanol)",Solubility in water ([2]; water),Water solubility ([2]; water) [µg/mL]
"COCCc1ccc(OCC(O)CNC(C)C)cc1 (centres unmarked) [metroprolol, metoprolol]",60,,,,,,
COc1cc(C2Oc3cc([C@H]4Oc5cc(O)cc(O)c5C(=O)[C@@H]4O)ccc3OC2CO)ccc1O (some centres unmarked) [silibinin],3.2,6.28,soluble,insoluble,poorly soluble,very poor solubility in water,< 40
